Measured values taken from ChEMBL document CHEMBL1201862, “PubChem BioAssay data set” (2004).
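Values below derive from 48-hour exposures of cells grown in 96-well plates, with endpoints linearly interpolated between the two concentrations bracketing the appropriate inhibition level. Abbreviation: GI50, concentration required for 50% inhibition of growth.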 Calls of active or inactive are those of the source. No stated cut-off is given here; in the data, active = GI50 up to about 1.1 µM and inactive = higher.

How the values were obtained:
Experiment in all cases: NCI tumour cell line growth inhibition, 48 h
SF-268 = test system: SF-268
HCC 2998 = test system: HCC 2998
Malme-3M = test system: Malme-3M
LXFL 529 = test system: LXFL 529
SK-MEL-5 = test system: SK-MEL-5
UACC-62 = test system: UACC-62
UO-31 = test system: UO-31
IGROV-1 = test system: IGROV-1
SN12C = test system: SN12C
786-0 = test system: 786-0
TK-10 = test system: TK-10
SK-MEL-2 = test system: SK-MEL-2
RXF 393 = test system: RXF 393
Hs-578T = test system: Hs-578T
NCI-H226 = test system: NCI-H226
SF-539 = test system: SF-539
ACHN = test system: ACHN
A498 = test system: A498
U-251 = test system: U-251
HCT-116 = test system: HCT-116

Measured: GI50

O=C1CCSC2=C1SCc1sccc12
inactive: SF-268 > 100 µM | HCC 2998 > 100 µM | Malme-3M > 100 µM | LXFL 529 > 100 µM | SK-MEL-5 > 100 µM | UACC-62 > 100 µM | UO-31 > 100 µM | IGROV-1 > 100 µM | SN12C > 100 µM | 786-0 > 100 µM | TK-10 > 100 µM | SK-MEL-2 > 100 µM | RXF 393 > 100 µM

OCC(S)CS.[Bi] (configuration not stated)
inactive: SF-268 5.43 µM | HCC 2998 13.6 µM | Malme-3M 3.97 µM | Hs-578T 15.9 µM | NCI-H226 51.8 µM | SF-539 15.4 µM | SK-MEL-5 31.4 µM | ACHN 16.5 µM | A498 27 µM | UACC-62 17.9 µM | UO-31 16.7 µM | IGROV-1 18.3 µM | SN12C 15.8 µM | 786-0 11.2 µM | U-251 15.1 µM | TK-10 17.8 µM | SK-MEL-2 12.6 µM | RXF 393 10.7 µM | HCT-116 17.7 µM

O=[N+]([O-])CC(SCc1ccccc1)c1ccc2c(c1)OCO2 (configuration not stated)
inactive: SF-268 9.4 µM | HCC 2998 5.57 µM | Malme-3M 14.9 µM | Hs-578T 6.31 µM | NCI-H226 7.91 µM | SF-539 4.01 µM | SK-MEL-5 12.2 µM | ACHN 13.1 µM | A498 6.98 µM | UACC-62 9.89 µM | UO-31 8.26 µM | IGROV-1 5.6 µM | SN12C 11.7 µM | 786-0 1.68 µM | U-251 6.59 µM | TK-10 10.8 µM | SK-MEL-2 21.1 µM | RXF 393 1.82 µM | HCT-116 1.69 µM

Cc1ccc(C(=O)Nc2ccc(CP(=O)(O)O)cc2CP(=O)(O)O)cc1NC(=O)c1cccc(NC(=O)Nc2cccc(C(=O)Nc3cc(C(=O)Nc4ccc(CP(=O)(O)O)cc4CP(=O)(O)O)ccc3C)c2)c1
inactive: SF-268 > 100 µM | HCC 2998 > 100 µM | Malme-3M > 100 µM | Hs-578T > 100 µM | NCI-H226 > 100 µM | SF-539 > 100 µM | SK-MEL-5 > 100 µM | ACHN > 100 µM | A498 > 100 µM | UACC-62 > 100 µM | UO-31 > 100 µM | IGROV-1 > 100 µM | SN12C > 100 µM | 786-0 > 100 µM | U-251 > 100 µM | TK-10 > 100 µM | SK-MEL-2 > 100 µM | RXF 393 > 100 µM | HCT-116 > 100 µM

COC(=O)[C@@H]1CN(C(=O)c2ccccc2)C(=O)N1C(=O)OCc1ccccc1
inactive: SF-268 > 100 µM | HCC 2998 > 100 µM | Malme-3M > 100 µM | Hs-578T > 100 µM | NCI-H226 > 100 µM | SF-539 > 100 µM | SK-MEL-5 > 100 µM | ACHN > 100 µM | A498 > 100 µM | UACC-62 > 100 µM | UO-31 > 100 µM | IGROV-1 > 100 µM | SN12C > 100 µM | 786-0 > 100 µM | U-251 > 100 µM | TK-10 > 100 µM | SK-MEL-2 > 100 µM | RXF 393 > 100 µM | HCT-116 > 100 µM

O=C(Cc1ccc(Cl)c(Cl)c1)NCCCN1CCN(CCCN2CCCCC2)CC1
inactive: SF-268 19.5 µM | HCC 2998 2.89 µM | Malme-3M 17.6 µM | Hs-578T 14.1 µM | NCI-H226 21.7 µM | SF-539 14.2 µM | SK-MEL-5 10.4 µM | ACHN 27.2 µM | A498 16.4 µM | UACC-62 3.84 µM | UO-31 1.84 µM | IGROV-1 27.1 µM | SN12C 18.8 µM | 786-0 16.4 µM | U-251 15.7 µM | TK-10 17.2 µM | SK-MEL-2 6.59 µM | RXF 393 13.2 µM | HCT-116 16.3 µM

CCOC(=O)n1cncc1CC(NC(=O)Cc1c(C(=O)C=C(C)C)[nH]c2ccccc12)C(=O)OC (configuration not stated)
inactive: SF-268 18 µM | HCC 2998 13.9 µM | Malme-3M 17.2 µM | Hs-578T 19.3 µM | NCI-H226 20.8 µM | SF-539 19.5 µM | SK-MEL-5 18 µM | ACHN 19.3 µM | A498 24.9 µM | UACC-62 20.3 µM | UO-31 15.7 µM | IGROV-1 14.9 µM | SN12C 16.3 µM | 786-0 21.5 µM | U-251 19.5 µM | TK-10 18.2 µM | SK-MEL-2 17 µM | RXF 393 14.1 µM | HCT-116 27.9 µM

O=c1cc(-c2ccccc2)[nH]c2c(F)ccc(F)c12
inactive: SF-268 > 100 µM | Malme-3M 31.7 µM | LXFL 529 68.5 µM | NCI-H226 37.6 µM | SF-539 52.8 µM | SK-MEL-5 44.1 µM | ACHN > 100 µM | UACC-62 30.7 µM | UO-31 88.3 µM | IGROV-1 > 100 µM | SN12C 63.5 µM | 786-0 79.6 µM | U-251 41.4 µM | TK-10 61.9 µM | SK-MEL-2 16.4 µM | RXF 393 97.1 µM | HCT-116 40.6 µM

CN(CCc1ccc(Cl)c(Cl)c1)CCN(C)CCN1CCCC1
inactive: SF-268 6.5 µM | HCC 2998 1.96 µM | Malme-3M 5.02 µM | Hs-578T 17.5 µM | NCI-H226 20 µM | SF-539 4.08 µM | SK-MEL-5 2.51 µM | ACHN 21.2 µM | A498 13.1 µM | UACC-62 1.98 µM | UO-31 5.15 µM | IGROV-1 17.7 µM | SN12C 15.7 µM | 786-0 8.99 µM | U-251 10.4 µM | TK-10 13.3 µM | SK-MEL-2 3.33 µM | RXF 393 10 µM | HCT-116 5.62 µM

CN1CN(c2ccccc2)C2(CCN(CCCC3(c4cccs4)OCCO3)CC2)C1=O
inactive: SF-268 > 100 µM | HCC 2998 > 100 µM | Malme-3M > 100 µM | Hs-578T > 100 µM | NCI-H226 > 100 µM | SF-539 > 100 µM | SK-MEL-5 91 µM | ACHN > 100 µM | A498 > 100 µM | UACC-62 > 100 µM | UO-31 > 100 µM | IGROV-1 > 100 µM | SN12C > 100 µM | 786-0 > 100 µM | U-251 > 100 µM | TK-10 > 100 µM | SK-MEL-2 > 100 µM | RXF 393 > 100 µM | HCT-116 > 100 µM

Cc1ccc(NC(=O)/C(Cc2cc(=O)oc3cc(O)ccc23)=N\NC(=O)C[N+](C)(C)C)cc1C
inactive: SF-268 > 100 µM | HCC 2998 > 100 µM | Malme-3M > 100 µM | Hs-578T > 100 µM | NCI-H226 > 100 µM | SF-539 > 100 µM | SK-MEL-5 > 100 µM | ACHN > 100 µM | A498 > 100 µM | UACC-62 > 100 µM | UO-31 > 100 µM | IGROV-1 > 100 µM | SN12C > 100 µM | 786-0 > 100 µM | U-251 > 100 µM | TK-10 > 100 µM | SK-MEL-2 > 100 µM | RXF 393 66.2 µM | HCT-116 > 100 µM

O=[N+]([O-])C(/C=C(\Cl)[N+](=O)[O-])=C(N1CCCCC1)N1CCCCC1
inactive: SF-268 51.2 µM | HCC 2998 44.7 µM | Malme-3M 9.44 µM | Hs-578T 58.2 µM | NCI-H226 56.5 µM | SF-539 25.9 µM | SK-MEL-5 21.7 µM | ACHN 48.9 µM | A498 41.4 µM | UACC-62 18.6 µM | UO-31 21.3 µM | IGROV-1 21.9 µM | SN12C 45 µM | 786-0 36.6 µM | U-251 65 µM | TK-10 > 100 µM | SK-MEL-2 30 µM | RXF 393 49.4 µM | HCT-116 21.7 µM

NC1=NNC(=O)c2nnc3c(C(=O)O)cnn3c2S1
inactive: SF-268 > 100 µM | Malme-3M > 100 µM | LXFL 529 > 100 µM | SF-539 > 100 µM | SK-MEL-5 > 100 µM | UACC-62 > 100 µM | UO-31 > 100 µM | IGROV-1 > 100 µM | SN12C > 100 µM | 786-0 > 100 µM | U-251 > 100 µM | TK-10 > 100 µM | RXF 393 > 100 µM | HCT-116 > 100 µM

O=C(O)c1cccc2cccc(-c3cccc4cccc(C(=O)O)c34)c12
inactive: SF-268 > 100 µM | HCC 2998 > 100 µM | Malme-3M > 100 µM | Hs-578T > 100 µM | NCI-H226 > 100 µM | SF-539 > 100 µM | SK-MEL-5 > 100 µM | ACHN > 100 µM | A498 > 100 µM | UACC-62 > 100 µM | UO-31 > 100 µM | IGROV-1 > 100 µM | SN12C > 100 µM | 786-0 > 100 µM | U-251 > 100 µM | TK-10 > 100 µM | SK-MEL-2 > 100 µM | RXF 393 > 100 µM | HCT-116 > 100 µM

Brc1c2c(c(Br)c3nsnc13)N=S=N2
inactive: SF-268 26.3 µM | HCC 2998 > 58.6 µM | Malme-3M 31.3 µM | Hs-578T 21 µM | NCI-H226 > 46.9 µM | SF-539 22.7 µM | SK-MEL-5 20 µM | ACHN 24.7 µM | A498 42.6 µM | UACC-62 16.2 µM | UO-31 22.8 µM | IGROV-1 23.5 µM | SN12C 17.4 µM | 786-0 15.6 µM | U-251 23.1 µM | TK-10 17.4 µM | SK-MEL-2 20 µM | RXF 393 15 µM | HCT-116 27.4 µM
